Marks after values point to notes of the source that are not given here.
What was measured:
[1] = tested on: acute rhinosinusitis induced by intranasal administration of formalin; type: in vivo, rat
Description: Activity of glutaryl histamine was studied in an experimental model of acute rhinosinusitis (ARS).
Administration of 20 μl of 7.5% formalin to the rat nasal passages leads to the development of a clinical picture similar to the symptoms of acute rhinosinusitis in a human.
The tested medicament and reference medicaments were administered for 7 days after administration of 7.5% formalin. Normal saline solution was used as placebo. The animals were subjected to euthanasia on day 8 after induction of experimental acute rhinosinusitis by method of air embolism. During necropsy, nasal passages of all animals were sampled. The obtained material was placed into 10% neutral-buffered formalin for further histological analysis.
The mucous and submucous membranes of both nasal passages (respiratory and olfactory regions) of the experimental animals were subjected to a morphological analysis of the specific activity of glutaryl histamine.
After the clinical phase of the experiment, the material derived from the animals was subjected to the standard treatment to prepare histological paraffin sections with a thickness of 3 to 5 μm. The sections were stained with hematoxylin and eosin for a microscopic study. Comparison and histological analysis of changes were performed versus the group of intact rats.
The main pathological processes inherent in experimental acute rhinosinusitis, such as vascular congestion in mucous membrane, hyperplasia and necrosis of the epithelium, the number of caliciform cells within 1 mm of the mucous membrane in the nasal septum, were evaluated by a semi-quantitative method to evaluate the degree of pathophysiological changes in histological, histochemical and morphological studies.
The microscopic analysis of exudative disorder developed in rats with acute rhinitis was aimed at measuring the number of caliciform cells comprising acidic mucus (Table 3).

LPS-induced tonsillitis = LPS-induced tonsillitis model (E. coli LPS into cervical lymph node); type: in vivo
Description: This example is aimed at evaluating the activity of glutaryl histamine on experimental model of tonsillitis. LPS-induced tonsillitis is one of the most adequate models for the study of the pathogenesis, pathomorphological changes and action of pharmacological medicaments on the course of this disease.
Tonsillitis was induced under anesthesia by administration of a solution of E. coli lipopolysaccharide (LPS) (Sigma) in normal physiological solution in a dose of 20 μg/kg, by 10 μl to the right upper lymph node (Inn. Cervicales superficiales). After administration, the lymph nodes were put under superficial neck muscles and then the skin was stitched. The wound was treated with streptocide. The animal was placed into a post-operation cage.
The tested medicament was administered once daily in a given dose strictly at the stated time for three days before the induction of tonsillitis and 10 days after. Normal saline solution was used as placebo.
Immediately after euthanasia, the animals were subjected to necropsy, the affected and intact lymph nodes were removed and weighed.
The lymph nodes derived from the half of animals from each group were being frozen after removal in a refrigerating chamber at −25° C. for 72 hours. Then the lymph nodes were lyophilized.
In a half of animals from each group (7), the affected lymph nodes were subjected to histological analysis. After euthanasia, intact and affected lymph nodes were removed from each animal. […] Sections with a thickness of 4 to 6 μm were prepared from the paraffin blocks, stained with hematoxylin and eosin to reveal typical pathological processes and study required parameters using light-optical microscope Leica DM LS (magnification 200× and 400×).
Weights of intact and affected lymph nodes were compared and the nodes also were lyophilized to evaluate an effect of the medicaments on the swelling degree and adequacy of the model of tonsillitis.
The protein-synthetic function of the liver and a systemic effect of the medicaments on organism were evaluated in total protein (TP) analysis.

[2] = tested on: acute respiratory distress syndrome (ARDS); test: ARDS model, single intravenous LPS 7.5 mg/kg; type: in vivo, rat; settings: Dexamethasone 5 mg/kg
Description: (§1) Since an intravenous administration of lipopolysaccharide (LPS) to animals is one of the most acceptable models for studying the pathogenesis, pathomorphological changes and consequences of acute respiratory distress syndrome, this model was used in this example. Tested medicament glutaryl histamine was administered for 9 days after the first administration of LPS, i.e. glutaryl histamine was administered for 12 days in total (3 days before the induction of ARDS and 9 days during and after the induction). The exception was dexamethasone since, according to the literature data and the information leaflet, long-time administration of steroidal anti-inflammatory agents can cause severe side effects. For this reason, dexamethasone was administered according to the following schedule: 49, 24 and 1 hour before the induction of ARDS in a dose of 5 mg/kg, for 3 days after the first injection of LPS in the same dose; the medicament was withdrawn by a gradual dose reduction for 3 days. Thus, dexamethasone was administered 9 times.
The mortality rate among the animals administered LPS in an intravenous dose of 7.5 mg/kg was 70% for 8 days. The most of them (60%) died on the first day, in particular, from 4 to 12-16 hours after the injection of LPS. The mortality rate among the animals administered glutaryl histamine was different from the rate in animals treated with dexamethasone; however, most of them also died on the first day, about in the same time period (Table 11).

[3] = tested on: acute respiratory distress syndrome (ARDS); test: ARDS model, multiple-dose intravenous LPS (LD30); type: in vivo, rat
Description: as §1
At this step, animals were administered LPS at more lower dose, but for longer time period. They were received 2 mg/kg on days 1 and 2, and 3 and 4 mg/kg on days 3 and 4, respectively. The maximum mortality rate, similarly to the single-dose administration of LD70, was on the first day. On eighth day, mortality reached 33%.
The second step of the experiment comprises the evaluation of both the mortality rate of the animals with calculation of the protective index and narrower indexes used for determination of a specific protection provided by glutaryl histamine in ARDS. As was disclosed above, a lower dose of LPS (LD30) was used at the second stage. In addition, LPS was administered every day for 4 days. This method of administration was aimed at achieving the maximum disorder exactly in the lung for subsequent evaluation of possible protective action of glutaryl histamine.

In the case of `C[C@@H]1C[C@H]2[C@@H]3CCC4=CC(=O)C=C[C@]4(C)[C@@]3(F)[C@@H](O)C[C@]2(C)[C@@]1(O)C(=O)CO` [Dexamethasone, dexamethasone, reference compound], the “Mucopurulent catarrh (number of rats)” value ([1]; Dexamethasone 5 mg/kg, n = 10) is reported as 0, the “Mucous catarrh (number of rats)” value ([1]; Dexamethasone 5 mg/kg, n = 10) is reported as 1 and the “Without changes (number of rats, mucous membrane in the nasal passages, macroscopic)” value ([1]; Dexamethasone 5 mg/kg, n = 10) is reported as 9. The “The number of caliciform cells within 1 mm of the mucosal membrane of the nasal septum” value ([1]; Dexamethasone (5 mg/kg), M ± m) was 15.6 ± 0.6, the “Mortality rate (%)” value (LPS-induced tonsillitis; Dexamethasone 5 mg/kg) was 64% and the “The number of died animals/initial number of animals in a group” value (LPS-induced tonsillitis; Dexamethasone 5 mg/kg) was 9/14. For the same compound, the “Area of germinal centers of lymphoid follicles in affected lymph nodes” value (LPS-induced tonsillitis; Dexamethasone (5 mg/kg), M ± m) was 0.016 ± 0.004* ** mm^2, the “Weight difference between affected and intact lymph nodes” value (LPS-induced tonsillitis; Dexamethasone (5 mg/kg), M ± m) was 15.6 ± 1.8 mg and the “IP (%) (protective index)” value [2] was 28.6%. The “S (%) (survival rate)” value [2] was 50%, the “Me (%) (mortality rate)” value ([2]; 8 days) was 50% and the Died ([2]; total number 10) was 5. The “IP (%) (protective index)” value ([3]; Dexamethasone 5 mg/kg) was 62.5%, the “M (%) (mortality rate)” value ([3]; Dexamethasone 5 mg/kg) was 12.5% and the “S (%) (survival rate)” value ([3]; Dexamethasone 5 mg/kg) was 87.5%. The Died ([3]; Dexamethasone 5 mg/kg, total number 24) was 3 and the “mortality rate for the first three days” value ([3]; dexamethasone (5 mg/kg), first three days) was 0%.
